According to patent US5288720A, “Angiotensin II receptor blocking 2,3,6 substituted quinazolinones” (American Cyanamid Company, priority 1993, dated 1994):

Experiments:
[1] = system: ANGIOTENSIN II VASOPRESSOR RESPONSE; assay: AII Challenge: blockade of angiotensin II vasopressor response in conscious SHR; format: in vivo, rat (Conscious Male Okamoto-Aoki SHR); conditions: SHR n=2, 3 mg/kg i.v.
Excerpt: By administering a compound of this invention to a rat, and then challenging with angiotensin II, a blockage of the vasopressor response is realized.
Conscious Male Okamoto-Aoki SHR, 16-20 weeks old, weighing approximately 330 g are purchased from Charles River Labs (Wilmington, Mass.). Conscious rats are restrained in a supine position with elastic tape. The area at the base of the tail is locally anesthetized by subcutaneous infiltration with 2% procaine. The ventral caudal artery and vein are isolated, and a cannula made of polyethylene (PE) 10-20 tubing (fused together by heat) is passed into the lower abdominal aorta and vena cava, respectively. The cannula is secured, heparinized (1,000 I.U./ml), sealed and the wound is closed. The animals are placed in plastic restraining cages in an upright position. The cannula is attached to a Statham P23Db pressure transducer, and pulsatile blood pressure is recorded to 10-15 minutes with a Gould Brush recorder. (Chan et al., (Drug Development Res., 18:75-94, 1989).
Angiotensin II (human sequence, Sigma Chem. Co., St. Louis, MO) of 0.05 and 0.1 ug/kg i.v. is injected into all rats (predosing response). Then a test compound, vehicle or a known angiotensin II antagonist is administered i.v., i.p. or orally to each set of rats. The two doses of angiotensin II are given to each rat again at 30, 60, 90, 120, 180, 240 and 300 minutes post dosing the compound or vehicle. The vasopressor response of angiotensin II is measured for the increase in systolic blood pressure in mmHg. The percentage of antagonism or blockade of the vasopressor response of angiotensin II by a compound is calculated using the vasopressor response (increase in systolic blood pressure) of angiotensin II of each rat predosing the compound as 100%. A compound is considered active if at 30 mg/kg i.v. it antagonized at least 50% of the response.

Angiotensin II Receptor = target: T1, Angiotensin II Receptor (Bos taurus, UniProt P25104); assay: Receptor Binding Assay: Binding of [^125 I](Sar^1,Ile^8)AngII to beef adrenal cortex membranes; conditions: 60 min, room temperature
T1 construct: The brownish tissue forming the adrenal cortex is scraped off and finely minced with scissors before homogenization; from tissue; host or cells: beef adrenal cortex, microsomal membranes (100,000×g pellet); fresh glands from a local slaughter house (Maxwell-Cohen)
T1 sequence (P25104 1-359): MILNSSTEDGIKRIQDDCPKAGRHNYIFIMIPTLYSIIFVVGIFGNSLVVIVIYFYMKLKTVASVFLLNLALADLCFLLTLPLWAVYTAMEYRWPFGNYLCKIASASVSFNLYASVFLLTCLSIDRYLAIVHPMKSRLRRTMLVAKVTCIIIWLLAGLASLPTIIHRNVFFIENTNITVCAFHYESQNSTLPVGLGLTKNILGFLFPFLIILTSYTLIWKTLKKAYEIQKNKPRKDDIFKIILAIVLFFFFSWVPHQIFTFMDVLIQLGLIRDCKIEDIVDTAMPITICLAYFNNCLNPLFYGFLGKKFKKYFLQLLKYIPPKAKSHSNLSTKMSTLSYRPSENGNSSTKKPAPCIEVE
Excerpt: Beef adrenals are obtained from a local slaughter house (Maxwell-Cohen). [^125 […]. 2200 Ci/mmole, is purchased from Dupont (NEN®, Boston, Mass.). All unlabeled AngII analogs, Dimethylsulfoxide (DMSO), nucleotides, bovine serum albumin (BSA) are purchased from Sigma Chemical Co., St. Louis, Mo. U.S.A. […] Approximately sixteen (16) to twenty (20) beef adrenal glands are processed as follows: fresh adrenal glands received on crushed ice are cleaned of fatty tissues and the tough membranes encapsulating the glands are removed and discarded. The brownish tissue forming the adrenal cortex is scraped off and finely minced with scissors before homogenization. Care is taken to avoid contamination with medullary tissue during dissection. The scraped cortices are suspended in twenty volumes of an ice-cold buffer medium consisting of 10 mM Tris.HCl (pH 7.4 at 22° C.) and containing 1.0 mM EDTA and 0.2M sucrose. Unless otherwise indicated, all subsequent operations are done at 4° C. […] The homogenate is centrifuged first at low speed (3,000×g) for 10 minutes. […] This P2 pellet is discarded and the liquid phase is carefully decanted off in clean centrifuge tubes and recentrifuged at high speed (100,000×g) for 60 minutes. The translucent final pellet is harvested and combined in a small volume (20-50.0 ml) of 50.0 mM Tris.HCl buffer, pH 7.2. A 100 ul aliquot is withdrawn and the protein content of the preparation is determined by the Lowry's method (Lowry, O. H., Rosebrough, […]. and Randall, R. J., Protein measurement with Folin phenol reagent. J. Biol. Chem., […], 265-275, 1951). The pelleted membrane is reconstituted in 50.0 mM Tris.HCl buffer containing 0.1 mM of phenylmethylsulfonyl fluoride (PMSF) to give approximately a protein concentration of 2.5 mg per ml of tissue suspension. […] Receptor Binding Assay: […] In competition studies, experimental compounds are diluted in dimethylsulfoxide (DMSO) and added in 20 ul to wells before the introduction of tissue membranes. […] Assays are performed in triplicate. The wells are left undisturbed for 60 minutes at room temperature. Following incubation, all wells are harvested at once with a Brandel® Harvester especially designed for a 96 well plate (Brandel® Biomedical Research & Development Labs. Inc., Gaithersburg, Md., U.S.A.). The filter discs are washed with 10×1.0 ml of cold 0.9% NaCl to remove unbound ligand. Presoaking the filter sheet in 0.1% polyethyleneimine in normal saline (PEI/Saline) greatly reduces the radioactivity retained by the filter blanks. This method is routinely used. The filters are removed from the filter grid and counted in a Parkard® Cobra Gamma Counter for 1 minutes. (Packard Instrument Co., Downers Grove, Ill, U.S.A.). The binding data are analyzed by the non-linear interactive "LUNDON-1" program (LUNDON SOFTWARE Inc., Cleveland, Ohio U.S.A.).

[2] = AII 0.05 mcg/kg IV, 30 min post dose
[3] = AII 0.05 mcg/kg IV, 60 min post dose
[4] = AII 0.05 mcg/kg IV, 90 min post dose
[5] = AII 0.05 mcg/kg IV, 120 min post dose
[6] = AII 0.05 mcg/kg IV, 180 min post dose
[7] = AII 0.05 mcg/kg IV, 240 min post dose
[8] = AII 0.05 mcg/kg IV, 300 min post dose
[9] = AII 0.1 mcg/kg IV, 30 min post dose
[10] = AII 0.1 mcg/kg IV, 60 min post dose
[11] = AII 0.1 mcg/kg IV, 90 min post dose
[12] = AII 0.1 mcg/kg IV, 120 min post dose
[13] = AII 0.1 mcg/kg IV, 180 min post dose
[14] = AII 0.1 mcg/kg IV, 240 min post dose
[15] = AII 0.1 mcg/kg IV, 300 min post dose

Compound	% Inhibition of AII vasopressor response [1, 2] [%]	Average Change (systolic blood pressure response to AII) [1, 2] [mmHg]	% Inhibition of AII vasopressor response [1, 3] [%]	Average Change (systolic blood pressure response to AII) [1, 3] [mmHg]	% Inhibition of AII vasopressor response [1, 4] [%]	Average Change (systolic blood pressure response to AII) [1, 4] [mmHg]	% Inhibition of AII vasopressor response [1, 5] [%]	Average Change (systolic blood pressure response to AII) [1, 5] [mmHg]	% Inhibition of AII vasopressor response [1, 6] [%]	Average Change (systolic blood pressure response to AII) [1, 6] [mmHg]	% Inhibition of AII vasopressor response [1, 7] [%]	Average Change (systolic blood pressure response to AII) [1, 7] [mmHg]	% Inhibition of AII vasopressor response [1, 8] [%]	Average Change (systolic blood pressure response to AII) [1, 8] [mmHg]	% Inhibition of AII vasopressor response [1, 9] [%]	Average Change (systolic blood pressure response to AII) [1, 9] [mmHg]	% Inhibition of AII vasopressor response [1, 10] [%]	Average Change (systolic blood pressure response to AII) [1, 10] [mmHg]	% Inhibition of AII vasopressor response [1, 11] [%]	Average Change (systolic blood pressure response to AII) [1, 11] [mmHg]	other results
CCCCc1nc2ccc(C(C)(O)C3CCN(C)C3=O)cc2c(=O)n1Cc1ccc(-c2ccccc2-c2nn[nH]n2)cc1 (single isomer, unassigned; isomer 2) [Example 48, 2-Butyl-6-1-hydroxy-1(1-methyl-2-oxo-3-pyrrolidinyl)ethyl]-3-[[2'-(1H-tetrazol-5-yl)[1,1'-biphenyl]-4-yl]methyl-4(3H)-quinazolinone isomer 2]	92	3.5	89	5	83	7.5	97	1.5	69	13.5	68	14	71	12.5	95	25	100	0	95	2.5	% Inhibition of AII vasopressor response [1, 12]: 84%; Average Change (systolic blood pressure response to AII) [1, 12]: 8.5 mmHg; % Inhibition of AII vasopressor response [1, 13]: 57%; Average Change (systolic blood pressure response to AII) [1, 13]: 22.5 mmHg; % Inhibition of AII vasopressor response [1, 14]: 52%; % Inhibition of AII vasopressor response [1, 15]: 57%; Average Change (systolic blood pressure response to AII) [1, 15]: 22.5 mmHg; IC50 (Angiotensin II Receptor): 43 nM
CCCCc1nc2ccc(C(C)(O)C3CCCN(C)C3=O)cc2c(=O)n1Cc1ccc(-c2ccccc2-c2nn[nH]n2)cc1 (single isomer, unassigned; isomer 2) [Example 53, 2-Butyl-6-[1-hydroxy(1-methyl-2-oxo-3-piperidinyl)ethyl]-3-[[2'-(1H-tetrazol-5-yl)[1,1'-biphenyl]-4-yl]methyl]-4(3H)-quinazolinone isomer 2]	89	5	89	5	58	20	58	20	37	30	58	20	53	22.5	76	12.5	61	20	76	12.5	% Inhibition of AII vasopressor response [1, 12]: 61%; Average Change (systolic blood pressure response to AII) [1, 12]: 20 mmHg; % Inhibition of AII vasopressor response [1, 13]: 42%; Average Change (systolic blood pressure response to AII) [1, 13]: 30 mmHg; % Inhibition of AII vasopressor response [1, 14]: 43%; Average Change (systolic blood pressure response to AII) [1, 14]: 29.5 mmHg; % Inhibition of AII vasopressor response [1, 15]: 17%; Average Change (systolic blood pressure response to AII) [1, 15]: 42.5 mmHg; IC50 (Angiotensin II Receptor): 54 nM
